Measured values taken from ChEMBL document CHEMBL5131480, “Cinnamic acid derivatives linked to arylpiperazines as novel potent inhibitors of tyrosinase activity and melanin synthesis” (Eur J Med Chem, 2022).
Active and inactive are the calls of the source. The rule behind the calls is not given here.

What was measured:
Mushroom tyrosinase = Mushroom tyrosinase (Agaricus bisporus, UniProt O42713+Q00024+C7FF04+C7FF05); experiment: Inhibition of mushroom tyrosinase using L-DOPA as substrate preincubated with substrate for 10 mins followed by addition of enzyme and measured for 5 mins by spectrophotometric analysis
[1] = biological target: Mushroom tyrosinase (Agaricus bisporus) (UniProt O42713+Q00024+C7FF04+C7FF05); experiment: Potency index, ratio of kojic acid IC50 to test compound IC50 for mushroom tyrosinase by spectrophotometric analysis
[2] = Cytotoxicity against human A-375 cells assessed as cell viability at 20 uM incubated for 72 hrs by MTT assay relative to control; format: toxicity, cell-based; conditions: read-out: Activity
[3] = Acute toxicity in zebra fish embryos assessed as bradycardia at 25 to 100 uM measured after 24 hrs by stereomicroscope analysis; parameters: species or system Danio rerio; conditions: zebrafish, dose 25-100 µM
[4] = Acute toxicity in zebra fish embryos assessed as strong malformation embryos at 25 to 100 uM measured after 48 hrs by stereomicroscope analysis; parameters: species or system Danio rerio; conditions: zebrafish, dose 25-100 µM
in vitro [5] = conditions: human, A-375 cells
Description: Cytotoxicity against human A-375 cells assessed as reduction in cell viability incubated for 72 hrs by MTT assay

in vitro [6] = conditions: human, A-375 cells; remark: listed apart in the source
Description: Cytotoxicity against human A-375 cells assessed as cell viability at 50 uM incubated for 72 hrs by MTT assay relative to control

[7] = Acute toxicity in zebra fish embryos assessed as lack of heart beat at 25 to 100 uM measured after 24 hrs by stereomicroscope analysis; format: tissue-based, Danio rerio; conditions: zebrafish, dose 25-100 µM
Danio rerio [8] = organism: Danio rerio; experiment: Anti-melanogenic activity against zebra fish embryos assessed as proportion of embryos with none to mild moderate decrease in melanogenesis at 50 uM measured after 48 hrs by stereomicroscope analysis relative to control; format: functional; parameters: scale not given: the % may be the effect or the level left
[9] = Acute toxicity in zebra fish embryos assessed as coagulation of fertilized eggs at 25 to 100 uM measured after 24 hrs by stereomicroscope analysis; parameters: species or system Danio rerio; conditions: zebrafish, dose 25-100 µM
[10] = Acute toxicity in zebra fish embryos assessed as lack of somite formation at 25 to 100 uM measured after 24 hrs by stereomicroscope analysis; parameters: species or system Danio rerio; conditions: zebrafish, dose 25-100 µM
[11] = Acute toxicity in zebra fish embryos assessed as lack of detachment of tail bud from yolk sac at 25 to 100 uM measured after 24 hrs by stereomicroscope analysis; parameters: species or system Danio rerio, Embryo; conditions: zebrafish, dose 25-100 µM
[12] = Acute toxicity in zebra fish embryos assessed as strong malformation embryos at 100 uM measured after 48 hrs by stereomicroscope analysis; parameters: species or system Danio rerio; conditions: zebrafish
Danio rerio [13] = organism: Danio rerio; experiment: Anti-melanogenic activity against zebra fish embryos assessed as proportion of embryos showing profound decrease in melanogenesis at 50 uM measured after 48 hrs by stereomicroscope analysis relative to control; format: functional; parameters: scale not given: the % may be the effect or the level left
Danio rerio [14] = organism: Danio rerio; experiment: Anti-melanogenic activity against zebra fish embryos assessed as proportion of embryos showing profound decrease in melanogenesis at 25 uM measured after 48 hrs by stereomicroscope analysis relative to control; format: functional; parameters: scale not given: the % may be the effect or the level left
Danio rerio [15] = organism: Danio rerio; experiment: Anti-melanogenic activity against zebra fish embryos assessed as proportion of embryos showing moderate decrease in melanogenesis at 50 uM measured after 48 hrs by stereomicroscope analysis relative to control; format: functional; parameters: scale not given: the % may be the effect or the level left
Danio rerio [16] = organism: Danio rerio; experiment: Anti-melanogenic activity against zebra fish embryos assessed as proportion of embryos showing moderate decrease in melanogenesis at 25 uM measured after 48 hrs by stereomicroscope analysis relative to control; format: functional; parameters: scale not given: the % may be the effect or the level left
Danio rerio [17] = organism: Danio rerio; experiment: Anti-melanogenic activity against zebra fish embryos assessed as proportion of embryos with none to mild moderate decrease in melanogenesis at 25 uM measured after 48 hrs by stereomicroscope analysis relative to control; format: functional; parameters: scale not given: the % may be the effect or the level left
[18] = Acute toxicity in zebra fish embryos assessed as bradycardia at 25 to 100 uM measured after 48 hrs by stereomicroscope analysis; parameters: species or system Danio rerio; conditions: zebrafish, dose 25-100 µM
[19] = biological target: T1, Tyrosinase (Homo sapiens) (UniProt P14679); experiment: Inhibition of tyrosinase activity in alpha-MSH stimulated human A-375 cells using L-DOPA as substrate at 20 uM by microplate reader analysis relative to control; format: cell-based
T1 sequence (whole entry): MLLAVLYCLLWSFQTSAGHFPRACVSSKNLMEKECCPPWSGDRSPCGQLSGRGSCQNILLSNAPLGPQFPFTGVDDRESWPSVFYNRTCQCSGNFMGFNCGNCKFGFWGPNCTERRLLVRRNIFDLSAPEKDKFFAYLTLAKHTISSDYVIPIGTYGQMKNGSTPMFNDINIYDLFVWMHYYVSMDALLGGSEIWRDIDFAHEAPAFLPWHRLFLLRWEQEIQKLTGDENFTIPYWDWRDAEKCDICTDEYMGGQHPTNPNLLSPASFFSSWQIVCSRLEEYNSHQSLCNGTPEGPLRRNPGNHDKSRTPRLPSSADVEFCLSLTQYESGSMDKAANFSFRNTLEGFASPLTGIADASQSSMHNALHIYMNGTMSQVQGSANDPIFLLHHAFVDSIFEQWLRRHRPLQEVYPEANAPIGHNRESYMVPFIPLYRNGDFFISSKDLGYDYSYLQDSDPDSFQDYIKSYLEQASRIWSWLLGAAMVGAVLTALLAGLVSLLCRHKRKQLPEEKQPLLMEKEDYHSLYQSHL

[20] = Acute toxicity in zebra fish embryos assessed as coagulation of fertilized eggs measured at 25 to 100 uM measured after 24 to 48 hrs by stereomicroscope analysis; parameters: species or system Danio rerio; conditions: zebrafish, dose lower 25 µM, time lower 24 hrs, dose upper 100 µM, time upper 48 hrs
[21] = Acute toxicity in zebra fish embryos assessed as lack of somite formation at 25 to 100 uM measured after 24 to 48 hrs by stereomicroscope analysis; parameters: species or system Danio rerio; conditions: zebrafish, dose lower 25 µM, time lower 24 hrs, dose upper 100 µM, time upper 48 hrs
[22] = Acute toxicity in zebra fish embryos assessed as lack of detachment of tail bud from yolk sac at 25 to 100 uM measured after 24 to 48 hrs by stereomicroscope analysis; parameters: species or system Danio rerio, Embryo; conditions: zebrafish, dose lower 25 µM, time lower 24 hrs, dose upper 100 µM, time upper 48 hrs
[23] = Acute toxicity in zebra fish embryos assessed as lack of heart beat at 25 to 100 uM measured after 24 to 48 hrs by stereomicroscope analysis; format: tissue-based, Danio rerio; conditions: zebrafish, dose lower 25 µM, time lower 24 hrs, dose upper 100 µM, time upper 48 hrs
[24] = Acute toxicity in zebra fish embryos assessed as alteration in heart functioning at 50 uM measured after 24 hrs by stereomicroscopic analysis; format: tissue-based, Danio rerio; conditions: zebrafish
[25] = Acute toxicity in zebra fish embryos assessed as death of organism at 50 uM measured after 48 hrs by stereomicroscope analysis; parameters: species or system Danio rerio; conditions: zebrafish
[26] = Acute toxicity in zebra fish embryos assessed as pericardial edema and embryonic lethality at 50 uM measured after 24 hrs by stereomicroscopic analysis; parameters: species or system Danio rerio; conditions: zebrafish
[27] = biological target: T1, Tyrosinase (Homo sapiens); experiment: Inhibition of tyrosinase activity in alpha-MSH stimulated human A-375 cells using L-DOPA as substrate at 20 uM by microplate reader analysis; format: cell-based
[28] = Acute toxicity in zebra fish embryos assessed as death of organism measured at 25 to 100 uM measured after 24 hrs by stereomicroscope analysis; parameters: species or system Danio rerio; conditions: zebrafish, dose 25-100 µM

| SMILES | IC50 (Mushroom tyrosinase) [µM] | Ratio IC50 [1] | viability at 72 h, 20 µM [2] [%] | GI50 at 72 h (in vitro [5]) [µM] | viability at 72 h, 50 µM (in vitro [6]) [%] | Activity (Danio rerio [8]) [%] | Activity (Danio rerio [13]) [%] | Activity (Danio rerio [14]) [%] | Activity (Danio rerio [15]) [%] | Activity (Danio rerio [16]) [%] | Activity (Danio rerio [17]) [%] | further results |
| --- | --- | --- | --- | --- | --- | --- | --- | --- | --- | --- | --- | --- |
| COc1ccc(/C=C/C(=O)N2CCN(c3ccc(F)c(F)c3)CC2)cc1N | 6.84 |  |  |  |  |  |  |  |  |  |  |  |
| O=C(/C=C/c1ccc([N+](=O)[O-])cc1)N1CCN(c2ccc(F)c(Cl)c2)CC1 | 0.35 | 30 | 98 | > 50 | 85.4 |  |  |  |  |  |  | Activity [3]: Toxic; Activity [4]: 13.3% |
| O=C(/C=C/c1cccc([N+](=O)[O-])c1)N1CCN(c2ccc(F)c(Cl)c2)CC1 | 0.16 | 30 | 98 | > 50 | 87.2 | 85 | 0 | 0 | 15 | 0 | 100 | Activity [7]: Non-Toxic; Activity [9]: Non-Toxic; Activity [10]: Non-Toxic; Activity [11]: Non-Toxic; Activity [12]: 6.6% |
| COc1ccc(/C=C/C(=O)N2CCN(c3ccc(F)cc3)CC2)cc1N | 17.85 |  |  |  |  |  |  |  |  |  |  |  |
| COc1ccc(/C=C/C(=O)N2CCN(Cc3ccccc3)CC2)cc1N | 55.64 |  |  |  |  |  |  |  |  |  |  |  |
| O=C(/C=C/c1ccc(Cl)cc1)N1CCN(c2ccc(F)c(Cl)c2)CC1 | 0.33 | 30 | 98 | 43.8 |  | 95 | 0 | 0 | 5 | 0 | 0 | Activity [7]: Non-Toxic; Activity [9]: Non-Toxic; Activity [10]: Non-Toxic; Activity [11]: Non-Toxic; Activity [18]: Toxic |
| COc1ccc(Cl)cc1/C=C/C(=O)N1CCN(c2ccc(F)cc2)CC1 | 27.4 |  |  |  |  |  |  |  |  |  |  |  |
| COc1ccc(/C=C/C(=O)N2CCN(c3ccc(F)c(Cl)c3)CC2)cc1[N+](=O)[O-] | 0.51 | 30 | 98 | > 50 | 93.5 | 45 | 10 | 15 | 45 | 60 | 25 | inhibition [19]: 60%; Activity [20]: Non-Toxic; Activity [21]: Non-Toxic; Activity [22]: Non-Toxic; Activity [23]: Non-Toxic |
| O=C(/C=C/c1cccc([N+](=O)[O-])c1)N1CCN(c2ccc(F)cc2)CC1 | 23.32 |  |  |  |  |  |  |  |  |  |  |  |
| COc1ccc(Cl)cc1/C=C/C(=O)N1CCN(c2ccc(F)c(Cl)c2)CC1 | 0.46 | 30 | 98 | > 50 | 72.6 |  |  |  |  |  |  | Activity [24]: 95%; Activity [7]: Non-Toxic; Activity [9]: Non-Toxic; Activity [10]: Non-Toxic; Activity [11]: Non-Toxic; Activity [18]: Toxic; Activity [25]: Toxic; Activity [26]: 5% |
| COc1ccc(/C=C/C(=O)N2CCN(c3ccc(F)c(Cl)c3)CC2)cc1N | 0.53 | 30 | 45 | 16.1 |  | 50 | 30 | 0 | 20 | 20 | 80 | Activity [20]: Non-Toxic; Activity [21]: Non-Toxic; Activity [22]: Non-Toxic; Activity [23]: Non-Toxic |
| COc1ccc(/C=C/C(=O)N2CCN(c3cccc(F)c3)CC2)cc1N | > 100 |  |  |  |  |  |  |  |  |  |  |  |
| O=C(/C=C/c1ccc2c(c1)OCO2)N1CCN(c2cccc(Cl)c2)CC1 | 34.25 |  |  |  |  |  |  |  |  |  |  |  |
| COc1cccc(/C=C/C(=O)N2CCN(c3ccc(F)c(Cl)c3)CC2)c1 | 0.25 | 30 | 98 | > 50 | 54 | 100 | 0 | 0 | 0 | 0 | 100 | inhibition [27]: Active; Activity [20]: Non-Toxic; Activity [21]: Non-Toxic; Activity [22]: Non-Toxic; Activity [23]: Non-Toxic |
| COc1cccc(/C=C/C(=O)N2CCN(c3ccc(F)cc3)CC2)c1 | 9.96 |  |  |  |  |  |  |  |  |  |  |  |
| O=C(/C=C/c1ccc(Cl)cc1)N1CCN(c2ccc(F)cc2)CC1 | 14.09 |  |  |  |  |  |  |  |  |  |  |  |
| COc1ccc(/C=C/C(=O)N2CCN(c3ccc(F)c(F)c3)CC2)cc1[N+](=O)[O-] | 15.47 |  |  |  |  |  |  |  |  |  |  |  |
| COc1cccc(/C=C/C(=O)N2CCN(c3ccc(F)c(Cl)c3)CC2)c1Cl | 0.12 | 150 | 98 | > 50 | 69.6 | 50 | 20 | 0 | 30 | 15 | 85 | Activity [7]: Toxic; inhibition [27]: Active; Activity [28]: Toxic |
